Measured values as given in patent US4990498A, “2- and 8-azido(2'-5')oligoadenylates and antiviral uses thereof” (Temple University-of the Commonwealth System of Higher …, priority 1988, dated 1991).

Legend:
[1] = system: 2-5A binding proteins from L929 cells (believed to be forms of RNase L); assay: Photoaffinity labelling / covalent cross-linking of 2-5A binding proteins in interferon-treated L929 cell extracts (SDS-PAGE, autoradiography); set-up: species or system murine; details: for UV exposure time for maximal photo-crosslinking: 254 nm, 0° C.; for molecular weight of protein(s) specifically photolabelled / cross-linked: L929 cell extracts; for molecular weight of protein(s) specifically photolabelled / cross-linked / number of proteins photolabelled / cross-linked: 60 s UV; for number of proteins photolabelled / cross-linked: interferon-treated L929 cell extracts
Description: FIG. 3A is an autoradiogram following SDS-PAGE of interferon-treated L929 cell extracts incubated with [gamma-^32 P]2-azido-p3 A3 at 1×10^-6 M in the absence (lane 1) or presence of p3A3 at 1×10^-5 M and 1×10^-4 M (lanes 2 and 3, respectively).The samples were UV-irradiated for 60 seconds at 0° C. prior to electrophoresis. Photolabelled proteins were detected by autoradiography. Molecular weight standards are indicated.
FIG. 4A is an autoradiogram following SDS-PAGE of interferon treated L929 cell extracts incubated with [alpha-^32 P]8-azido-p3 A3 at 1×10^-6 M in the absence (lanes 1 and 2) or presence of the following: p3 A3 at 1×10^-4 M (lane 3); p3 A3 at 5×10^-4 M (lane 4); or 3'-5'A3 at 5×10^-4 M (lane 5). The samples were UV irradiated (lanes 2-6) for 60 seconds at 0° C. prior to electrophoresis. Under identical experimental conditions, the L929 cell extract was incubated with p3 A4 [^32 P]pCp at 1×10^-8 M (lane 6). Photolabelled proteins were detected by autoradiography.
Ten microliters of L929 cell extracts (100 micrograms protein/assay) were combined with 10 microliters of a buffer (140 mM NaCl, 35 mM Tris-HCl, pH 7.5) and were incubated in the presence of 1×10^-6 M [gamma-^32 p]2-azido -p3 A3 (0.9 microCi/nmol) or 1×10^-6 M [alpha-^32 p]8-azido -p3 A3 (0.9 microCi/nmol) or 1×10^-9 M p3 A4 [^32 P]pCp (3 mCi/nmol) in a 30 microliter final volume. The samples, after incubation in microcentrifuge tubes at 0° C. for 90 minutes, were transferred into ice-mold porcelain spot plates and photolysed for 60 seconds using a 254 nm UVG-11 Mineralight lamp (Ultraviolet Products, Inc.) at a distance of 2 cm (1.0 J/m^2). Sixty microliters of a reductive, protein-solubilizing mixture (15.4 mg/ml dithiothreitol, 25% w/v sucrose, 2.5% sodium dodecylsulfate, 25 mM TrisHCl, pH 8.0, 0.0025% pyronine Y) were added to the samples. Photo-incorporation of the ^32 P-labeled 2-azido-p3 A3 and 8-azido-p3 A3 into the L929 protein was determined by SDS-PAGE (Lamelli, Nature (London) 227:680-685 (1970)). The SDS-PAGE gels were stained with Coomassie blue, dried and subject to autoradiography at -70° C. with X-Omat film (Kodak).

RNase L [2] = assay: rRNA cleavage assay: activation of RNase L in L929 cell extracts; type: biochemical, murine; details: for final concentration at which RNase L is activated to degrade rRNA to specific cleavage products / concentration dependence of rRNA degradation / potency in rRNA degradation relative to authentic p3 A3: L929 cell extracts; for final concentration at which RNase L is activated to degrade rRNA to specific cleavage products: "as low as"; for concentration dependence of rRNA degradation / potency in rRNA degradation relative to authentic p3 A3 / biological activity (RNase L binding and activation) relative to authentic 2-5A: in words
Description: FIG. 2 represents a rRNA cleavage assay with 2-azido-p3 A3 and 8-azido-p3 A3 L929 cell extracts were incubated in the absence (lane 4) or presence of p3 A3 (lane 1), 2-azido-p3 A3 (lane 2), or 8-azido-p3 A3 (lane 3) at 1 x 10^-8 M final concentrations. The positions of 28S and 18S rRNA, and the positions of RNase L specific cleavage products ("SCP"), are indicated.
Activation of RNase L by the compounds of the invention was also measured in a ribosomal RNA cleavage assay using L929 cell extracts. The extracts were prepared in glycerol buffer in 15 microliters final volume as described by Kariko et al., Biochem. Biophys. Res. Commun. 128:695-698 (1985).

RNase L [3] = assay: rRNA cleavage assay with photolabelled RNase L/8-azido-p3 A3 complex; type: biochemical, murine; details: 1×10^-6 M 8-azido-p3 A3, 60 s UV 254 nm; in words
Description: Ten microliters of L929 cell extract (100 microgram protein/assay) were combined with ten microliters buffer (140 mM NaCl, 35 mM Tris-HCl, pH 7.5) and were incubated in the presence of 1×10^-6 M 8-azido-p3 A3 in a 30 microliter final volume. The sample was transferred to ice-cold porcelain spot plates and photolysed for 60 second using a 254 nm UVG-11 Mineralight lamp at a distance of 2 cm (1.0 J/m^2) to photolabel the RNase L/8-azido-p3 A3 complex. A ribosomal RNA cleavage assay was performed as described above, but using the photolabelled complex.

RNase L [4] = assay: Radiobinding assay: competition with p3 A4 [^32 P]pCp for binding to RNase L in L929 cell extracts; set-up: species or system murine; details: in words
Description: RNase L was obtained from L929 cells by the following procedure. The L929 cells were maintained in monolayer culture in Dulbecco's modified Eagle medium supplemented with 5% bovine serum. Monolayers were tested with 200 units/ml of mouse interferon for 20 hours. Cell extracts of the L929 cells were prepared by collecting the cells by trypsinization, washing them once with phosphate-buffered saline and lysing the cells in NP40 buffer according to the method of Silverman, et al., Eur. J. Biochem. 124:131-138 (1982).
The ability of 8-azido-p3 A3 to compete with p3 A4 -[^32 P]pCp for binding to RNase L in the L929 cell extracts was compared to p3 A3 using radiobinding assays (50 micrograms of protein/assay) according to the method of Knight et al., Methods Enzymol. 79:216-227 (1981). […] 8-Azido-p3 A3 (FIG. 1A, solid circle data points) binds to RNase L with an IC50 of 2×10^-9 M, which is equivalent to the IC50 of authentic p3 A3 (FIG. 1A, solid triangle data points).

RNase L [5] = assay: Core-cellulose assay: activation of partially purified RNase L to hydrolyze poly(U)[^32 P]pCp; type: biochemical, murine; details: in words
Excerpt: The recently developed core cellulose assay of Silverman, Anal. Biochem. 144:450-460 (1985), which involves the immobilization and partial purification of RNase L on 2-5A core-cellulose, was used to measure the ability of 8-azido-p3 A3 to activate RNase L. For this purpose, poly(U)[^32 P]pCp was synthesized from poly(U) using T4 RNA ligase, as described by Silverman. 8-Azido-p3 A3 (solid circle data

Substance | size of photolabelled protein ([1]; 1×10^-6 M [gamma-^32 P]2-azido-p3 A3, 60 s UV, protein a) | UV exposure time for maximal photo-crosslinking [1] | molecular weight of protein(s) specifically photolabelled / cross-linked [1] | number of proteins photolabelled / cross-linked [1] | final concentration at which RNase L is activated to degrade rRNA to specific cleavage products (RNase L [2]) | concentration dependence of rRNA degradation (RNase L [2]) | potency in rRNA degradation relative to authentic p3 A3 (RNase L [2]) | biological activity (RNase L binding and activation) relative to authentic 2-5A (RNase L [2]) | rRNA cleavage by RNase L after photolabelling (RNase L [3]) | inhibition of p3 A4 [^32 P]pCp binding to RNase L (RNase L [4]) | potency in activating RNase L relative to authentic p3 A3 (RNase L [5])
5'-0-triphosphoryl-(2-azidoadenylyl)(2'-5')2-azidoadenylyl(2'5')2-azidoadenosine [2-azido-p3 A3] | 185,000 dalton | 60 s | 185,000 | one | 10^-9 M | concentration dependent | as potent as authentic p3 A3 | almost identical to that of authentic 2-5A |  |  | 
5'-0-triphosphoryl-(8-azidoadenylyl)(2'-5')8-azidoadenylyl(2'-5')8-azidoadenosine [8-azido-p3 A3] |  | 60 s | 46,000-158,000 | six | 10^-9 M | concentration dependent | as potent as authentic p3 A3 | almost identical to that of authentic 2-5A | observed to cleave 18S and 28S rRNA to the same specific cleavage products characteristic of RNase L activation by 8-azido-p3 A3 without photoactivation | inhibited p3 A4 [^32 P]pCp binding to RNase L in a concentration dependent manner | equipotent to authentic p3 A3
